Test results reported in patent US6160006A (priority 1997, dated 2000).
Like-named read-outs stand apart in the source and are kept apart here. One block for each compound: values may come before it.

Tests used:
P450 2B1 = conditions: cited from earlier work
P450 2B4 = conditions: cited from earlier work
P450 3A4 [1] = biological target: T1, P450 3A4 (Homo sapiens, UniProt P08684); conditions: for inhibition: e. coli membranes
Target sequence in this assay (P08684 whole entry): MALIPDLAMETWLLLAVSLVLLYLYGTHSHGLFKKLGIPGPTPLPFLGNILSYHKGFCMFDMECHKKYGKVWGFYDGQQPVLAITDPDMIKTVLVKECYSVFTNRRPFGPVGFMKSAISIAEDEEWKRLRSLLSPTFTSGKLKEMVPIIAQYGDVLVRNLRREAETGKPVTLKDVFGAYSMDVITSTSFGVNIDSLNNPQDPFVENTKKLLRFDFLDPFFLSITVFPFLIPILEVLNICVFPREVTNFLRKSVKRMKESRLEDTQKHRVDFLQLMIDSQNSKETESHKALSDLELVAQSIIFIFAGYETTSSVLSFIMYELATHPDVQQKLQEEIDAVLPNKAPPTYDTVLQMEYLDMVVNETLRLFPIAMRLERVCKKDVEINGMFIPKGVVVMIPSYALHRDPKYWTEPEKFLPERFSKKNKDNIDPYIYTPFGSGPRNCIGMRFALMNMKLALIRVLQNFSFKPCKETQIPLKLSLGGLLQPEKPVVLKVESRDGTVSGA
Target sequence in this assay (P16435 whole entry partner): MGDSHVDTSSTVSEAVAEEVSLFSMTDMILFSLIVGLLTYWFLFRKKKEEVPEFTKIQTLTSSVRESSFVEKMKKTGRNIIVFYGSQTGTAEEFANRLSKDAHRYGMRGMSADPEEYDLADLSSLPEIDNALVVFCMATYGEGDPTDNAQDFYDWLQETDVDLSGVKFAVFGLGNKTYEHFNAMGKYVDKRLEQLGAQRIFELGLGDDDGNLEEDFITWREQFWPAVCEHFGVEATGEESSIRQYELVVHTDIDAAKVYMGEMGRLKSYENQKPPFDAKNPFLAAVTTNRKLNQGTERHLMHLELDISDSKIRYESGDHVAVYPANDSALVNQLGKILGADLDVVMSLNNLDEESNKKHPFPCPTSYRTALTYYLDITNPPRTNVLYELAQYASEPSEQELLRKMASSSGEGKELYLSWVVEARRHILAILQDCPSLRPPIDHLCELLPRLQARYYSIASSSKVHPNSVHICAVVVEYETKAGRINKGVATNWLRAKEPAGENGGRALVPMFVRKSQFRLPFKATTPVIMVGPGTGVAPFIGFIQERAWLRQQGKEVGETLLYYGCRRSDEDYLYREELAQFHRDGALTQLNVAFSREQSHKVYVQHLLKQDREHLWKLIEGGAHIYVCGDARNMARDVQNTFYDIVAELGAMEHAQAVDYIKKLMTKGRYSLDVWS

CYP3A4 (3A4) = assay: Inhibition of CYP3A4 in a purified enzyme preparation; type: biochemical
CYP3A [2] = assay: CYP3A activity: 6β-hydroxytestosterone formation from testosterone in rat liver microsomes
Procedure: (§1) Measurement of CYP3A Activity. CYP3A activity was assessed by measuring the formation rate of 6β-hydroxytestosterone from testosterone in dexamethasone-induced liver microsomes from male Sprague-Dawley rats (Human Biologics Inc., Phoenix, Az.) using incubation conditions identical to those described previously. Edwards, D. J. et al., Life Sci. 59:1025-1030 (1996). […] Siess, M.-H. et al., Toxicol. Appl. Pharmacol. 130:73-78 (1995). In addition, 6β-hydroxytestosterone formation was also measured in human lymphoblast microsomes containing CYP3A4 expressed from transfected human CYP3A4 cDNA (Gentest Corporation, Woburn, Mass.).
(§2) HPLC Procedures and instrumentation. […] Methylene chloride (4 ml) was added and samples were vortex mixed for 2 minutes. After centrifugation, the organic phase was evaporated, the residue re-constituted in 200 μl of mobile phase (55% methanol in water) and injected (100 μl) onto the column (Partisil 5 ODS-3 25 cm C18 column, Whatman Inc., Clifton, N.J.). A mobile phase flow rate of 1.2 ml/minute was used with detection of analytes at 254 nm (Waters 490E multiwavelength UV detector, Waters Corp., Milford, Mass.).
Metabolic Experiments. Grapefruit juice (1 ml) was extracted into methylene chloride and, following evaporation of the organic phase, the residue was reconstituted in mobile phase and chromatographed by HPLC. Fractions of the HPLC eluent were collected at 3-4 minute intervals following injection, evaporated and the effect of the residue on 6β-hydroxytestosterone formation examined. […] Edwards, D. J. et al., Life Sci. 59:1025-1030 (1996). The effect of these solutions on 6β-hydroxytestosterone formation was compared using analysis of variance (SYSTAT for Windows™, Version 5.0) with the Tukey test for post-hoc analysis (p<0.05 for significance).

[3] = Solubility in ethanol versus water; type: physicochemical; conditions: ethanol vs water
P450 3A4 [4] = biological target: T1, P450 3A4; assay: Inactivation of P450 3A4 in human liver microsomes (testosterone 6β-hydroxylation, P450 content); type: biochemical; parameters: The human liver microsomes was prepared by differential centrifugation; from tissue; host or cells: human liver (microsomes); conditions: for P450 Content / Testosterone 6-β hydroxylation: 400 μM DHB, 15 min, 37° C., pH 7.5
Procedure: Inactivation of P450 3A4 in human liver microsomes and E. coli membranes. […] At end of the incubation, 100 μl of the incubation mixture was taken for determination of testosterone 6β-hydroxylation activity. The other aliquot was used for P450 determination by the method of Omura and Sato. Ducharme, M. P. et al., Clin. Pharmacol. Ther. 57:485-491 (1995). The human liver microsomes was prepared by differential centrifugation.
Determination of testosterone 6β-hydroxylation. The human liver microsomes or the P450 3A4 and reductase containing E. coli membrane fractions ([…] of P450) were incubated with 200 μM testosterone in 1 ml of 50 mM Hepes buffer (pH 7.5). The reactions were initiated by the addition of 1 mM NADPH and terminated by 1 ml of ethyl acetate in ice. The 6β-hydoxytestosterone product was determined by HPLC on a C18 column (Microsorb-MV, 5 μm, 4.6×15 cm) eluted with a mobile phase of 65% of methanol at flow rate of 1 ml/min and the eluate was monitored by UV detection at 254 nm.
Target sequence in this assay (P08684 whole entry): as the sequence (P08684 whole entry) above

human CYP3A4 = human CYP3A4 (Homo sapiens, UniProt P08684); assay: 6β-hydroxytestosterone formation in human lymphoblast microsomes containing CYP3A4 expressed from transfected human CYP3A4 cDNA
Procedure: as §1, §2
Metabolic Experiments. Grapefruit juice (1 ml) was extracted into methylene chloride and, following evaporation of the organic phase, the residue was reconstituted in mobile phase and chromatographed by HPLC. […]

P450 [5] = conditions: in vivo, treated rats; cited from earlier work
P450 1A1 = conditions: cited from earlier work
P450 1A2 = conditions: cited from earlier work
P450 [6] = conditions: oral erythromycin; oral and IV midazolam; cited from earlier work
CYP3A [7] = conditions: co-administration; cited from earlier work
CYP3A [8] = conditions: cited from earlier work
oxidative metabolism = conditions: in vitro; cited from earlier work
CYP3A4 = conditions: human, in vivo; cited from earlier work
cytochrome P450 [9] = conditions: dose far in excess of the amount in grapefruit juice; cited from earlier work
cytochrome P450 [10] = conditions: cited from earlier work
[11] = preincubation with DHB and NADPH

Sequence of human CYP3A4 (P08684 whole entry): as above

Compound: C#Cc1ccc2c(ccc3ccccc32)c1 [2-ethynylphenanthrene]
mechanism based inactivation (P450 2B1): mechanism based inactivation
mechanism based inactivation (P450 2B4): mechanism based inactivation

inhibition (P450 3A4 [1]): ~45%
inhibition (P450 3A4 [1]; 15 min): 90%
IC50 (CYP3A [2]; microsomes): 25 µM
solubility, in words [3]: much more soluble in ethanol than water
P450 Content (P450 3A4 [4]; +NADPH/+DHB): 0.87 nmol/mL
Testosterone 6-β hydroxylation (P450 3A4 [4]; +NADPH/+DHB): 0.18 nmol/nmol P450/min
P450 Content (P450 3A4 [4]; -NADPH/+DHB): 0.93 nmol/mL
Testosterone 6-β hydroxylation (P450 3A4 [4]; -NADPH/+DHB): 0.37 nmol/nmol P450/min
P450 3A4 activity inhibition, in words (P450 3A4 [4]; human liver microsomes): significantly inhibited
P450 retained (reduced-CO spectrum) (P450 3A4 [4]; [11]): about 90%
loss of P450 3A4 catalytic activity (P450 3A4 [4]; [11]): 70%
inhibition at 20 µM (P450 3A4 [4]; without preincubation, final concentration of 20 μM, read-out: testosterone 6β-hydroxylase activity inhibited (competitive inhibition)): ~30%
IC50 (human CYP3A4): 1000 to 2000 nM
Compound: C/C(=C\COc1c2ccoc2cc2oc(=O)ccc12)CCC(O)C(C)(C)O (centres unmarked) [6',7'-dihydroxybergamottin]
inactivation of 3A4, in words (P450 3A4 [1]; human 3A4 expressed in E. coli membrane): potent NADPH- and time dependent inactivator of 3A4
inactivation of 3A4, in words (CYP3A4 (3A4)): potent NADPH- and time dependent inactivator of 3A4
inhibition, concentration dependence and need of pre-incubation (CYP3A [2]): inhibition is concentration-dependent and requires no pre-incubation with microsomes
effect of GSH on inactivation (P450 3A4 [4]; 2 mM GSH in the incubation system): not inhibited by the presence of 2 mM GSH
inhibition of 6β-hydroxytestosterone formation activity, mode (P450 3A4 [4]; FIG. 4, human liver microsomes): time and concentration dependent as well as requiring catalytic turnover
inactivation of 3A4, in words (P450 3A4 [4]; human liver microsomes): potent NADPH- and time dependent inactivator of 3A4

Compound: COc1c2occc2cc2ccc(=O)oc12 [8-methoxyporalen]
heme fragment, MI complex and heme adduct formation (P450 [5]): no heme fragment, MI complex and heme adduct formation

Compound: C#Cc1cc2ccccc2c2ccccc12 [9-ethynylphenanthrene]
mechanism based inactivation (P450 2B1): mechanism based inactivation
mechanism based inactivation (P450 2B4): mechanism based inactivation

Compound: COc1c2ccoc2cc2cc(C)oc(=O)c12 [coriandrin]
binding to apoP450 (P450 1A1): covalent binding
binding to apoP450 (P450 1A2): covalent binding

Compound: CC[C@H]1OC(=O)[C@H](C)[C@@H](O[C@H]2C[C@@](C)(OC)[C@@H](O)[C@H](C)O2)[C@H](C)[C@@H](O[C@@H]2O[C@H](C)C[C@H](N(C)C)[C@H]2O)[C@](C)(O)C[C@@H](C)C(=O)[C@H](C)[C@@H](O)[C@]1(C)O [erythromycin]
metabolism of midazolam (P450 [6]): impaired the metabolism of midazolam after both oral and IV administration

Compound: CC(=O)N1CCN(c2ccc(OCC3COC(Cn4ccnc4)(c4ccc(Cl)cc4Cl)O3)cc2)CC1 (centres unmarked) [ketoconazole, reference compound]
bioavailability of cyclosporine (CYP3A [7]): increases bioavailability

Compound: O=C1C[C@@H](c2ccc(O)cc2)Oc2cc(O)cc(O)c21 [naringenin]
inhibition of CYP3A / contribution to it (CYP3A [8]): do not significantly contribute

Compound: C[C@@H]1O[C@@H](O[C@H]2[C@H](Oc3cc(O)c4c(c3)O[C@H](c3ccc(O)cc3)CC4=O)O[C@H](CO)[C@@H](O)[C@@H]2O)[C@H](O)[C@H](O)[C@H]1O [naringin]
inhibition of oxidative metabolism (oxidative metabolism): weak inhibitor
effect on disposition of substrates for CYP3A4 (CYP3A4): did not significantly affect
inhibition of CYP3A / contribution to it (CYP3A [8]): do not significantly contribute

Compound: O=c1c(O)c(-c2ccc(O)c(O)c2)oc2cc(O)cc(O)c12 [quercetin]
effect on cytochrome P450 activity (cytochrome P450 [9]): no effect

Compound: chlorophyllin
inhibition of cytochrome P450 activity (cytochrome P450 [10]): non-specific inhibition of cytochrome P450 activity
